This assay addresses T1, TRPV1 (vanilloid receptor).
T1 construct: native receptor in hemocytes
The assay is described as follows: radioligand saturation binding, rapid filtration. Format: cell-based, Mytilus galloprovincialis.

In general, Kd refers to the concentration at which binding is half-saturated. `C=C(C)[C@]12C[C@@H](C)[C@@]34O[C@](Cc5ccccc5)(O[C@@H]1[C@@H]3C=C(COC(=O)Cc1ccc(O)c(OC)c1)C[C@]1(O)C(=O)C(C)=C[C@@H]41)O2` [resiniferatoxin] registered a Kd of 0.413 ± 0.168 nM.

For the origin of these results see paper PMC8125337 (International Journal of Molecular Sciences, 2021).
